Data from BindingDB's records for patent US11859014 (Emory University, 2024).

What follows are compounds tested against Genome polyprotein (Norovirus Hu/GII.P4_GII.4/Minerva/2006/USA, UniProt A0A0K2E2J2) (assay: Fret Assay).
Genome polyprotein (Norovirus Hu/GII.P4_GII.4/Minerva/2006/USA, UniProt A0A0K2E2J2), sequence (A0A0K2E2J2 whole entry): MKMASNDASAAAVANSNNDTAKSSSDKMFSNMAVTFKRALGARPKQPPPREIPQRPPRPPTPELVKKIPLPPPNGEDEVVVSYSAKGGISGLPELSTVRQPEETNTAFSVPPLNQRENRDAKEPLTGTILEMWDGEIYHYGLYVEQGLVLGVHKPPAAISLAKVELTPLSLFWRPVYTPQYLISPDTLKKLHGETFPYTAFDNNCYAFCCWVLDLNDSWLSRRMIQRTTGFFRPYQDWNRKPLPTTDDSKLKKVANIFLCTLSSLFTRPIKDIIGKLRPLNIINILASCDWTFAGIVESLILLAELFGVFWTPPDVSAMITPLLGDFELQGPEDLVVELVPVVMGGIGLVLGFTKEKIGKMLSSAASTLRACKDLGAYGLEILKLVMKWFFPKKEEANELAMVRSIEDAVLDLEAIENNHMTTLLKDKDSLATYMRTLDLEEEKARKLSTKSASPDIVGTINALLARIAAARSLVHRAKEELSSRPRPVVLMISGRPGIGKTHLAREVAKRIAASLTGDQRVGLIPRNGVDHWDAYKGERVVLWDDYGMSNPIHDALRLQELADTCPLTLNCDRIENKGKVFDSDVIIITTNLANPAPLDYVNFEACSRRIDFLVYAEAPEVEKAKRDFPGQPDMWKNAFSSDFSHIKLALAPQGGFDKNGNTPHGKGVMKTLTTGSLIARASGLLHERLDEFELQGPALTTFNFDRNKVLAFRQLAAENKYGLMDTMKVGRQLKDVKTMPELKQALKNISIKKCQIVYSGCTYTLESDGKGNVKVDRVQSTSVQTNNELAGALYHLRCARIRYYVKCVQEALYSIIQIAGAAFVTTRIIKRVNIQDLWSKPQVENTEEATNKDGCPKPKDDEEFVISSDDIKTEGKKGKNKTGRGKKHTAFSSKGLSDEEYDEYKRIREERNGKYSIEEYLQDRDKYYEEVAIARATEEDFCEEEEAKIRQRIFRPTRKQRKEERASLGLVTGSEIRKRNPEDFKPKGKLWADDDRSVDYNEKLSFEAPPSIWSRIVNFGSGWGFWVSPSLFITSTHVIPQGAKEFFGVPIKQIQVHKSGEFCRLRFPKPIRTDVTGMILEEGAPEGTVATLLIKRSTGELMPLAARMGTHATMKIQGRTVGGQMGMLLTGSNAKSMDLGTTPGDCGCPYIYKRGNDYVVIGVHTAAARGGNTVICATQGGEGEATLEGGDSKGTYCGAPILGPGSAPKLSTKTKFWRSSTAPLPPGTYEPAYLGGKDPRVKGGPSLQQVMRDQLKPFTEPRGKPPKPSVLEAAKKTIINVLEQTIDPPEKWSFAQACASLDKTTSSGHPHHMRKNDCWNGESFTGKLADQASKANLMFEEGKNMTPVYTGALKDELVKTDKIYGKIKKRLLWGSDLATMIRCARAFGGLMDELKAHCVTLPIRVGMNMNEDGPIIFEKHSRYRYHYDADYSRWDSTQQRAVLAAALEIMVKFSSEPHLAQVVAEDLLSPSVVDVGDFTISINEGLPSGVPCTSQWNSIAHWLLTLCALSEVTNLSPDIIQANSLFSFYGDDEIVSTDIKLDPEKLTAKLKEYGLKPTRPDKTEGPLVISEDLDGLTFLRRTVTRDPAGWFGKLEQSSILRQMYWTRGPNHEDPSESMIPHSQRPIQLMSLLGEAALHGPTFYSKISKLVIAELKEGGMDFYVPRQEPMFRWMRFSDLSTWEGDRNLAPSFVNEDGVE
Method: (§1) The ability of these compounds to inhibit the NoV, specifically Minerva virus protease catalytic Cys139 covalently (IC50 and Ki) was determined with an enzyme kinetic assay. NoV strains, specifically GII.4 such as the Minerva virus are responsible for causing the majority (80%) of infections in humans. The activity of the inhibitors was evaluated by monitoring the cleavage of a FRET substrate every one minute for 20 minutes (excitation/emission: 488/520 nm) using a SpectraMax M5 microplate reader (Molecular Devices, Sunnyvale CA). Serial dilutions of each inhibitor were incubated with enzyme for 90 minutes at 37° C. before addition of the FRET substrate to ensure complete inactivation. Commercially available protease inhibitors chymostatin and rupintrivir were used as controls.
CC(C)C[C@H](NC(=O)[C@H](Cc1cccc2ccccc12)NC(=O)c1cnccn1)C(=O)N[C@H](C=O)C[C@@H]1CCNC1=O [US11859014, Compound 29] showed a Ki of 670 nM.
CC(C)C[C@H](NC(=O)[C@H](Cc1ccc(F)cc1)NC(=O)OCc1ccccc1)C(=O)N[C@H](C=O)C[C@@H]1CCCNC1=O [US11859014, Compound 35] showed an IC50 of 167 nM and a Ki of 858 nM.
With CCOC(=O)/C=C/[C@H](C[C@@H]1CCNC1=O)NC(=O)[C@@H](CC(=O)[C@@H](NC(=O)c1cc(C)on1)C(C)C)Cc1ccc(F)cc1 [US11859014, Compound rupintrivir] the IC50 was 23600 nM and the Ki was 8200 nM.
Work on CC(C)C[C@H](NC(=O)[C@H](Cc1cccc2ccccc12)NC(=O)c1cnccn1)C(=O)N[C@H](C=O)C[C@@H]1CCCNC1=O [US11859014, Compound 23] yielded an IC50 of 204 nM.
In the case of CC(C)C[C@H](NC(=O)[C@H](Cc1ccc(O)cc1)NC(=O)OCc1ccccc1)C(=O)N[C@H](C=O)C[C@@H]1CCCNC1=O [US11859014, Compound 11], the Ki is reported as 427 nM.
In the case of CC(C)C[C@H](NC(=O)[C@H](Cc1cccc2ccccc12)NC(=O)OCc1ccccc1)C(=O)N[C@H](C=O)C[C@@H]1CCCNC1=O [US11859014, Compound 19], the Ki is reported as 1190 nM.
In the case of CC(C)C[C@H](NC(=O)[C@H](Cc1cccc2ccccc12)NC(=O)OCc1ccccc1)C(=O)N[C@H](/C=C(\C#N)C(N)=O)C[C@@H]1CCCNC1=O [US11859014, Compound 36], the Ki is reported as 3600 nM.
In the case of O=C[C@H](C[C@@H]1CCCNC1=O)NC(=O)[C@H](Cc1ccccc1)NC(=O)[C@H](Cc1cccc2ccccc12)NC(=O)OCc1ccccc1 [US11859014, Compound 83], the IC50 is reported as 482 nM.

The compounds below were run against Genome polyprotein (Hu/NV/NV/1968/US, UniProt Q83883) (assay: Fret Assay).
Genome polyprotein (Hu/NV/NV/1968/US, UniProt Q83883), sequence (Q83883 whole entry): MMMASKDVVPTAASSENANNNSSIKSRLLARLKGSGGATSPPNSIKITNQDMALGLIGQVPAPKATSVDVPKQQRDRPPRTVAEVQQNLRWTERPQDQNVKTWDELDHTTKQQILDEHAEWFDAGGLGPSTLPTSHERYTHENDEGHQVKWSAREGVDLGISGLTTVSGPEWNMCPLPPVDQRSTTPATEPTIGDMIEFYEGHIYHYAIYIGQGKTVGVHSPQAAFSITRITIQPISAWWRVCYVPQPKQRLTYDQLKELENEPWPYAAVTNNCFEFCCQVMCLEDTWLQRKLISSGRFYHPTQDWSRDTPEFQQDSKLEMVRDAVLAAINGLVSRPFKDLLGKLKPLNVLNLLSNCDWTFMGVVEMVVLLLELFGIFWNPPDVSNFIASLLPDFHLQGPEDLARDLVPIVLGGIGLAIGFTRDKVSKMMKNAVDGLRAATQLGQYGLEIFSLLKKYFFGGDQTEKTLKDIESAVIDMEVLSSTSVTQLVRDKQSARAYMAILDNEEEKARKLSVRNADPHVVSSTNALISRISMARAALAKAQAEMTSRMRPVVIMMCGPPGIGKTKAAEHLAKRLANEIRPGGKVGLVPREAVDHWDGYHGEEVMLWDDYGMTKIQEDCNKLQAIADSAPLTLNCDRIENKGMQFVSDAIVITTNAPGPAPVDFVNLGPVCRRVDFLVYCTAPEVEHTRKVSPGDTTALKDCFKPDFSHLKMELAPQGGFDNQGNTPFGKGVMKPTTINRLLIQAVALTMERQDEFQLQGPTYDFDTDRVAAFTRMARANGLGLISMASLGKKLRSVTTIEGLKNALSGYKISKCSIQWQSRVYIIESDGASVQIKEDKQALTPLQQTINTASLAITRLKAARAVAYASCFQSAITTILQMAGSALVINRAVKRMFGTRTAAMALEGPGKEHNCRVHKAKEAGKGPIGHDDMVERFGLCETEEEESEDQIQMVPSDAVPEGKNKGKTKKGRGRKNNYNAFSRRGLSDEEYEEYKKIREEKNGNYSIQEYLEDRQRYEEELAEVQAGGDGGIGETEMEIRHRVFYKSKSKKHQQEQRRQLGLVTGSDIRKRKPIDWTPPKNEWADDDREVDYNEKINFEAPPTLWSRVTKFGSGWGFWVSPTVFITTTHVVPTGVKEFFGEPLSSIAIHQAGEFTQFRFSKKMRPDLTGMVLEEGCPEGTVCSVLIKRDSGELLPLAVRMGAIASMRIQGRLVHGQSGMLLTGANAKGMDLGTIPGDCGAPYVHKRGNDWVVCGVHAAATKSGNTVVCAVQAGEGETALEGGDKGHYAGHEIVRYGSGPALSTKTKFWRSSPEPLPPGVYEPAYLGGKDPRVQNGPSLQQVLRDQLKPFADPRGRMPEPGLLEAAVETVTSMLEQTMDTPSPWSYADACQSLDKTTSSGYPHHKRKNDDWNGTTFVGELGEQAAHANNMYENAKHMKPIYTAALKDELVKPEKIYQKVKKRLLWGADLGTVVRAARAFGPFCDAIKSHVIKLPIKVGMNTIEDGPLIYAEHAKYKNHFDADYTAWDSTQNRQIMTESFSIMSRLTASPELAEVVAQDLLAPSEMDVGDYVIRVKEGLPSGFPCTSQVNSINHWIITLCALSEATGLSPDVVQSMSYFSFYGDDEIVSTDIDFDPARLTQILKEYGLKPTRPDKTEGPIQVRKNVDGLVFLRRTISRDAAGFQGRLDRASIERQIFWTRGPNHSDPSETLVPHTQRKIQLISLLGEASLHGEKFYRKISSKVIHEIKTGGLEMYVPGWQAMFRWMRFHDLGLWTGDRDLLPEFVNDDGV
Method: as §1
Work on CC(C)C[C@H](NC(=O)[C@H](Cc1cccc2ccccc12)NC(=O)c1cnccn1)C(=O)N[C@H](C=O)C[C@@H]1CCNC1=O [US11859014, Compound 29] yielded an IC50 of 112 nM and a Ki of 350 nM.
CC(C)C[C@H](NC(=O)[C@H](Cc1cccc2ccccc12)NC(=O)c1cnccn1)C(=O)N[C@H](C=O)C[C@@H]1CCCNC1=O [US11859014, Compound 23] gave an IC50 of 96 nM and a Ki of 528 nM.
Compound CC(C)C[C@H](NC(=O)[C@H](Cc1ccc(O)cc1)NC(=O)OCc1ccccc1)C(=O)N[C@H](C=O)C[C@@H]1CCCNC1=O [US11859014, Compound 11] has an IC50 of 44 nM and a Ki of 123 nM.
Compound CC(C)C[C@H](NC(=O)[C@H](Cc1cccc2ccccc12)NC(=O)OCc1ccccc1)C(=O)N[C@H](C=O)C[C@@H]1CCCNC1=O [US11859014, Compound 19] has an IC50 of 80 nM and a Ki of 155 nM.
